From a flash point compilation (Sun et al. 2020) come the findings set out here.

Test in series [1]: not given
This is another data set of the same source.

Test in series [2]: not given
This is another data set of the same source.

Test in series [3]: not given
The source holds these as a separate data set.

Test in series [4]: not given
The source holds these as a separate data set.

Test in series [5]: not given
The source holds these as a separate data set.

Take `CC(C)(CO)[C@@H](O)C(=O)NCCCO`: the flash point is 113.00 °C.
The same measure, in the same setting: to `CC(C)C(=O)OCC(C)(C)C(O)C(C)C` (stereo not given) belongs 120.00 °C.
`CO[C@H]1CO[C@H]2[C@@H]1OC[C@H]2OC` had a flash point of 103.00 °C.
Still for that read-out and setting: to `O=C(OCC1CCC(COC(=O)c2ccccc2)CC1)c1ccccc1` (stereo not given) belongs 161.00 °C.
In series [1], `CCCc1cccc(C)c1C` [1,2-dimethyl-3-propylbenzene] returned a flash point of 72 °C.
`Cc1ccc(C(C)C)cc1C` [1,2-dimethyl-4-isopropylbenzene] had a flash point in series [1] of 68.1 °C.
The compound `CCc1cc(CC)cc(CC)c1` [1,3,5-triethylbenzene] had a flash point in series [1] of 81.1 °C.
On to `C1=CCCC=C1` [1,3-cyclohexadiene], for which the flash point is -16 °C in series [2] and 26 °C in series [3].
With `CCc1ccc(C)c(CC)c1` [1,3-diethyl-4-methylbenzene], the flash point in series [1] was 72.2 °C.
Same read-out and setting: in the case of `CCc1cc(C)cc(CC)c1` [1,3-diethyl-5-methylbenzene] it was 70 °C; in that of `Cc1ccc(C(C)C)c(C)c1` [1,3-dimethyl-4-isopropylbenzene], 67.2 °C.
The compound `OC(CBr)CCBr` (stereo not given) [1,4-dibromobutan-2-ol] came in with a flash point of 113.00 °C.
In series [1], `CCc1ccc(CC)c(C)c1` [1,4-diethyl-2-methylbenzene] came in with a flash point of 73.0 °C.
Consider `CC(C)c1ccc(C(C)C)cc1` [1,4-diisopropylbenzene], for which the flash point in series [1] came to 76.1 °C.
Turning to `CC(O)CNCC(C)O` (stereo not given) [1-(2-hydroxypropylamino)propan-2-ol], the flash point is 126.00 °C.
Turning to `CCCCc1ccccc1C` [1-butyl-2-methylbenzene], the flash point in series [1] was 72.5 °C.
In the case of `O=C1CCCN1C1CCCCC1` [1-cyclohexyl-2-pyrrolidinone], the flash point is 145.00 °C.
As for `CCCc1cccc(CC)c1` [1-ethyl-3-propylbenzene], the flash point in series [1] is 69.7 °C.
As for `C=CCCCCCCCCCCCCCCC` [1-heptadecene], the values for the flash point in series [2] and in series [4] were 135 °C and 141 °C, respectively.
In the case of `Cc1ccc(CC(C)C)cc1` [1-isobutyl-4-methylbenzene], in series [1], the flash point stood at 67.4 °C.
As for `C=CCCCCCCCCCCC` [1-tridecene], the flash point in series [2] worked out at 79 °C; in series [3], 80 °C; in series [4] it was 92 °C.
Regarding `OCC(F)(F)F` [2,2,2-trifluoroethanol], the flash point was 29.00 °C.
Turning to `CC(C)C(C)(C)C` [2,2,3-trimethylbutane], the flash point is -24 °C in series [2] and -6 °C in series [3].
`CC(C)CC(C)(C)CO` [2,2,4-trimethylpentan-1-ol] came in with a flash point of 60.00 °C.
As for `CCCC(C)C(C)C` (stereo not given) [2,3-dimethylhexane], the flash point in series [2] is 5 °C; in series [3], -3 °C.
For `CC(C)(O)C#CC(C)(C)O` [2,5-dimethylhex-3-yne-2,5-diol], the flash point was found to be 73.90 °C.
The same measure, in the same setting: in the case of `NCCOCCO` [2-(2-aminoethoxy)ethanol] it was 127.00 °C; in that of `C=CCOCC1CO1` (stereo not given) [2-(allyloxymethyl)oxirane], 48.00 °C; in that of `CC(O)COC(C)COC(C)CO` (stereo not given) [2-[2-(2-hydroxypropoxy)propoxy]propan-1-ol], 143.33 °C.
Still for that read-out and setting: to `COC(C)(C)C` [2-methoxy-2-methylpropane] belongs -34.44 °C.
`CCCCCC(C)C` [2-methylheptane]: the flash point in series [5] was 4.00 °C; in series [2], 5 °C.
`C=C(C)C` [2-methylprop-1-ene]: the flash point was -116.00 °C.
In the case of `CC(C)CO` [2-methylpropan-1-ol], the flash point was 30.00 °C. In series [5], this compound had a flash point of 28.00 °C.
Taken in the same sequence, the figures for `CC(C)(C)N` [2-methylpropan-2-amine] were -38.00 °C and 10.00 °C.
As to `CC#CCCCCC` [2-octyne], the flash point came out at 18 °C in series [2], 28 °C in series [3] and 24 °C in series [4].
In turn, `N#Cc1ccccn1` [2-pyridinecarbonitrile] had a flash point of 89.00 °C.
Take `C=CC(C)(C)C` [3,3-dimethyl-1-butene]: the values for the flash point in series [2] and in series [3] were -29 °C and -28 °C, respectively.
As to `CC1CNCC(C)C1` (stereo not given) [3,5-dimethylpiperidine], the flash point was found to be 21.50 °C.
Same read-out and setting: to `CCC(C)(O)C#CC(C)(O)CC` (stereo not given) [3,6-dimethyloct-4-yne-3,6-diol] belongs 109.00 °C.
Still for that read-out and setting: to `OCCCOCCCO` [3-(3-hydroxypropoxy)propan-1-ol] belongs 123.89 °C; to `Brc1cccnc1` [3-bromopyridine], 51.00 °C; to `N#Cc1cccnc1` [3-pyridinecarbonitrile], 84.00 °C.
As to `C=CC=C(C)C` [4-methyl-1,3-pentadiene], the flash point in series [2] is -18 °C; in series [3], -34 °C.
Regarding `C#CCC(C)C` [4-methylpent-1-yne], the flash point is -4.00 °C.
Same read-out and setting: in the case of `N#Cc1ccncc1` [4-pyridinecarbonitrile] it was 88.00 °C.
Same read-out and setting: to `Cc1cccc(N)n1` [6-methyl-2-pyridinamine] belongs 103.00 °C.
Turning to `OC[C@@H](O)[C@@H](O)[C@H](O)[C@@H](O)CO` [(2R,3R,4R,5S)-hexane-1,2,3,4,5,6-hexol], the flash point came out at 148.90 °C.
Compound `OC/C=C/CO` [(E)-but-2-ene-1,4-diol] displayed a flash point of 128.00 °C.
Same read-out and setting: in the case of `C/C=C\CC` [(Z)-pent-2-ene] it was -18.00 °C.
Still for that read-out and setting: to `CCN(CC)C(C)=O` [N,N-diethylacetamide] belongs 70.00 °C; to `CCN(C=O)CC` [N,N-diethylformamide], 60.00 °C; to `C1CCC(NC2CCCCC2)CC1` [N-cyclohexylcyclohexanamine], 103.00 °C.
The same measure, in the same setting: in the case of `CC=CC` [but-2-ene] it was -73.30 °C; in that of `OCC#CCO` [but-2-yne-1,4-diol], 152.00 °C.
`ClCOCCl` [chloro-(chloromethoxy)methane] had a flash point of 19.00 °C.
Regarding `C[C@@H]1CCCC[C@@H]1C` [cis-1,2-dimethylcyclohexane], the flash point is 11 °C in series [2] and 12 °C in series [3].
The compound `C[C@@H]1CCC[C@@H]1C` [cis-1,2-dimethylcyclopentane] displayed a flash point in series [2] of -4 °C.
Same read-out and setting: in the case of `C/C=C\CCC` [cis-2-hexene] it was -26 °C; in that of `C/C=C\CC` [cis-2-pentene], -47 °C.
Still for that read-out and setting: in the case of `CC/C=C\CC` [cis-3-hexene] it was -28 °C; in that of `CC/C=C\CCCC` [cis-3-octene], 17 °C.
Still for that read-out and setting: to `CCC/C=C\CCC` [cis-4-octene] belongs 17 °C; to `C1=CCCCCCC1` [cyclooctene], 25 °C.
`C1=CCC=C1` [cyclopenta-1,3-diene] came in with a flash point of 0.00 °C.
The same measure, in the same setting: to `NCCN` [ethane-1,2-diamine] belongs 57.20 °C.
As for `CCOCC` [ethoxyethane], the flash point was -40.00 °C. The flash point in series [5] is -45.00 °C.
In series [2], `CCC1CCCC1` [ethylcyclopentane] had a flash point of -4 °C.
Compound `CCCCCCCN` [heptan-1-amine] displayed a flash point of 44.00 °C.
Regarding `CCCCCCCO` [heptan-1-ol], the flash point is 73.00 °C. In series [5], this compound gave a flash point of 77.00 °C.
The compound `OCCCCCCO` [hexane-1,6-diol] had a flash point of 147.00 °C.
The same measure, in the same setting: in the case of `CC(C)c1ccccc1` [isopropylbenzene] it was 46.00 °C.
Regarding `Cc1cccc(C(C)C)c1` [m-isopropyltoluene], in series [2], the flash point turned out to be 50 °C.
With `CCCCC1CCCCC1` [n-butylcyclohexane], the flash point in series [2] is 48 °C; in series [3], 41 °C.
Turning to `CCCCCCCCCc1ccccc1` [n-nonylbenzene], in series [2], the flash point was determined as 117 °C.
As to `CCCC1CCCCC1` [n-propylcyclohexane], the figures for the flash point in series [2] and in series [3] were 31 °C and 35 °C, respectively.
Compound `CCCCCCCCCO` [nonan-1-ol] had a flash point of 80.00 °C. In series [5], the flash point stood at 74.00 °C.
On the same counts, the results for `CCCCCCCC` [octane] are 16.00 °C and 13.00 °C.
Take `CCC(O)CC` [pentan-3-ol]: the flash point came to 40.00 °C.
Still for that read-out and setting: in the case of `NCc1ccccc1` [phenylmethanamine] it was 72.00 °C; in that of `c1ccc(COCc2ccccc2)cc1` [phenylmethoxymethylbenzene], 135.00 °C.
`C=CCN` [prop-2-en-1-amine] showed a flash point of -28.00 °C. Also, the flash point in series [5] was -29.00 °C.
`CC(O)CO` (stereo not given) [propane-1,2-diol] yielded a flash point of 104.44 °C.
In the case of `C1CCOC1` [tetrahydrofuran], the flash point was -25.56 °C. In series [3], this compound gave a flash point of -21 °C.
In series [2], `C[C@H]1CC[C@H](C)CC1` [trans-1,4-dimethylcyclohexane] showed a flash point of 6 °C.
The same measure, in the same setting: to `C/C=C/CCCC` [trans-2-heptene] belongs -6 °C; to `C/C=C/CCCCC` [trans-2-octene], 14 °C.
On the same count and under the same terms, to `C/C=C/CC` [trans-2-pentene] belongs -45 °C; to `CC/C=C/CCC` [trans-3-heptene], -6 °C.
Same read-out and setting: in the case of `CC/C=C/CCCC` [trans-3-octene] it was 9 °C; in that of `C/C=C/C(C)C` [trans-4-methyl-2-pentene], -34 °C.
For `CCC/C=C/CCC` [trans-4-octene], in series [2], the flash point came out at 8 °C.
Same read-out and setting: to `C1CC[C@H]2CCCC[C@@H]2C1` [trans-decalin] belongs 52 °C; to `C=CC1CCCCC1` [vinylcyclohexane], 21 °C.
